Results: US12643887B2, “Heterocyclic derivatives with cardiomyocyte proliferation activity for treatment of heart diseases” (Tongji University, priority 2019, dated 2026)
Read-outs that look alike come from different tables or passages of the source.

Experiments:
[1] = test system: Neonatal Rat Ventricular Myocytes (NRVMs); assay: Myocyte proliferation assay (EdU assay) in neonatal rat ventricular myocytes; assay type: cell-based; details: growth relative to blank myocyte growth without compound added; for Avg 1 uM (average myocyte proliferation): compound 1 uM; for Avg 3 uM (average myocyte proliferation): compound 3 uM; for Avg 10 uM (average myocyte proliferation): compound 10 uM
Summary of the method: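 After 36 h compound exposure (1, 3 or 10 uM in 6% FBS/ITS DMEM, following 24 h low-serum culture), NRVMs were pulsed with EdU for 12 h. Proliferation scored by automated confocal imaging of EdU click chemistry, ab8295 immunostaining and DAPI nuclei in fixed cultures.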

human HIPK1 = biological target: T1, human HIPK1 (Homo sapiens, UniProt Q86Z02); assay: HIPK1 enzyme assay (ADP-Glo); assay type: biochemical
T1 construct: Recombinant human HIPK1 (156-555); GST (N); purchased SignalChem H03-11G; host or cells: Sf9 insect cells
T1 sequence (Q86Z02 156-555): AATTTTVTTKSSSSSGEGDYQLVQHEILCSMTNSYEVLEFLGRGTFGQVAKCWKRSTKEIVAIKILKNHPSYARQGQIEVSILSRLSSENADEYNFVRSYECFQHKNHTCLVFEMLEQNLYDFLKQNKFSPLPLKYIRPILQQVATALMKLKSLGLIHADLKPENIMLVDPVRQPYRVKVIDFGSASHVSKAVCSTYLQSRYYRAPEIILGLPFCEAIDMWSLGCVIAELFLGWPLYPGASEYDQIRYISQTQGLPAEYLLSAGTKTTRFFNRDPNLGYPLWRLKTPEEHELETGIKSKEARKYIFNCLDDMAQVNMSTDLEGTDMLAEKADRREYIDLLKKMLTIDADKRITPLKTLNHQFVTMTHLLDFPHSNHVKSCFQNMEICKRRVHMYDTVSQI
Summary of the method: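 Recombinant GST-tagged HIPK1 (156-555, Sf9), 4 nM, preincubated 30 min at 25° C with compound in Tris pH 7.5/MgCl2/BSA/DTT, then reacted 90 min with 0.05 mg/ml MBP and 5 μM ATP. ADP formed read by ADP-Glo luminescence; IC50 from four-parameter logistic fit of % inhibition versus Max/Min controls.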

[2] = ADP-Glo, ATP 5 μM, read-out: HIPK1 IC50

Row | Compound | Avg 1 uM (average myocyte proliferation) [1] | Avg 3 uM (average myocyte proliferation) [1] | Avg 10 uM (average myocyte proliferation) [1] | IC50 (human HIPK1; [2]) | IC50 (human HIPK1)
1 | CCN(C1=N/C(=C\c2ccc3c(c2)OCO3)C(=O)N1)c1ccccc1 [Example 4, (Z)-5-(benzo[d][1,3]dioxol-5-ylmethylene)-2-(ethyl(phenyl)amino)-3,5-dihydro-4H-imidazol-4-one] | ** (10%-50%) | ** (10%-50%) | ** (10%-50%) | > 10000 nM | 
2 | CC(=O)N(C1=N/C(=C\c2ccc3c(c2)OCO3)C(=O)N1)c1ccccc1 [Example 5, (Z)—N-(4-(benzo[d][1,3]dioxol-5-ylmethylene)-5-oxo-4,5-dihydro-1H-imidazol-2-yl)-N-phenylacetamide] | ** (10%-50%) | ** (10%-50%) | *** (>50%) |  | 100 to 1000 nM
3 | CN(C1=N/C(=C\c2ccc3ncccc3c2)C(=O)N1)c1ccc2ncsc2c1 [Example 85, (Z)-2-(benzo[d]thiazol-6-yl(methyl)amino)-5-(quinolin-6-ylmethylene)-3,5-dihydro-4H-imidazol-4-one] | * (<10% growth relative to blank myocyte growth without compound added.) | ** (10%-50%) |  | > 10000 nM | 
4 | CN(C1=N/C(=C\c2ccc3ncsc3c2)C(=O)N1)c1ccc2c(c1)ncn2C [Example 86, (Z)-5-(benzo[d]thiazol-6-ylmethylene)-2-(methyl(1-methyl-1H-benzo[d]imidazol-5-yl)amino)-3,5-dihydro-4H-imidazol-4-one] | ** (10%-50%) | ** (10%-50%) |  | 1000 to 10000 nM | 
5 | CN(C1=N/C(=C\c2ccc3[nH]ccc3c2)C(=O)N1)c1ccc2ncsc2c1 [Example 87, (Z)-5-((1H-indol-5-yl)methylene)-2-(benzo[d]thiazol-6-yl(methyl)amino)-3,5-dihydro-4H-imidazol-4-one] | ** (10%-50%) | ** (10%-50%) |  | > 10000 nM | 
6 | CN1C(=O)/C(=C/c2ccc3ncsc3c2)N=C1Nc1ccc2ncsc2c1 [Example 88, (Z)-2-(benzo[d]thiazol-6-ylamino)-5-(benzo[d]thiazol-6-ylmethylene)-3-methyl-3,5-dihydro-4H-imidazol-4-one] | * (<10% growth relative to blank myocyte growth without compound added.) | * (<10% growth relative to blank myocyte growth without compound added.) |  | > 10000 nM | 
7 | COCCN(C1=N/C(=C\c2ccc3ncsc3c2)C(=O)N1)c1ccc2ncsc2c1 [Example 89, (Z)-2-(benzo[d]thiazol-6-yl(2-methoxyethyl)amino)-5-(benzo[d]thiazol-6-ylmethylene)-3,5-dihydro-4H-imidazol-4-one] | ** (10%-50%) | * (<10% growth relative to blank myocyte growth without compound added.) |  | 1000 to 10000 nM | 
8 | Cc1nc2ccc(NC3=N/C(=C\c4ccc5ncsc5c4)C(=O)N3)cc2s1 [Example 90, (Z)-5-(benzo[d]thiazol-6-ylmethylene)-2-((2-methylbenzo[d]thiazol-6-yl)amino)-3,5-dihydro-4H-imidazol-4-one] | ** (10%-50%) | ** (10%-50%) |  | > 10000 nM | 
9 | CC(=O)N(C1=N/C(=C\c2ccc3ncsc3c2)C(=O)N1)c1ccc2ncsc2c1 [Example 91, (Z)—N-(benzo[d]thiazol-6-yl)-N-(4-(benzo[d]thiazol-6-ylmethylene)-5-oxo-4,5-dihydro-1H-imidazol-2-yl)acetamide] | * (<10% growth relative to blank myocyte growth without compound added.) | * (<10% growth relative to blank myocyte growth without compound added.) |  | 100 to 1000 nM | 
10 | O=C1NC(Nc2ccc3ncsc3c2)=N/C1=C\c1cncs1 [Example 92, (Z)-2-(benzo[d]thiazol-6-ylamino)-5-(thiazol-5-ylmethylene)-3,5-dihydro-4H-imidazol-4-one] | * (<10% growth relative to blank myocyte growth without compound added.) | * (<10% growth relative to blank myocyte growth without compound added.) |  | 100 to 1000 nM | 
11 | Cn1cnc2ccc(NC3=N/C(=C\c4ccc5ncsc5c4)C(=O)N3)cc21 [Example 93, (Z)-5-(benzo[d]thiazol-6-ylmethylene)-2-((1-methyl-1H-benzo[d]imidazol-6-yl)amino)-3,5-dihydro-4H-imidazol-4-one] | * (<10% growth relative to blank myocyte growth without compound added.) | ** (10%-50%) |  | 100 to 1000 nM | 
12 | O=C1NC(Nc2ccc3ncsc3c2)=N/C1=C\c1ccc2nccnc2c1 [Example 94, (Z)-2-(benzo[d]thiazol-6-ylamino)-5-(quinoxalin-6-ylmethylene)-3,5-dihydro-4H-imidazol-4-one] | * (<10% growth relative to blank myocyte growth without compound added.) | * (<10% growth relative to blank myocyte growth without compound added.) |  | > 10000 nM | 
13 | O=C1NC(Nc2ccc3ncsc3c2)=N/C1=C\c1ccc2cn[nH]c2c1 [Example 95, (Z)-5-((1H-indazol-6-yl)methylene)-2-(benzo[d]thiazol-6-ylamino)-3,5-dihydro-4H-imidazol-4-one] | * (<10% growth relative to blank myocyte growth without compound added.) | * (<10% growth relative to blank myocyte growth without compound added.) |  | > 10000 nM | 
14 | O=C1NC(=S)N/C1=C\c1ccc2sccc2c1 [Example 96, (Z)-5-(benzo[b]thiophen-5-ylmethylene)-2-thioxoimidazolidin-4-one] | * (<10% growth relative to blank myocyte growth without compound added.) | * (<10% growth relative to blank myocyte growth without compound added.) |  | > 10000 nM | 
15 | O=C1NC(Nc2ccc3nc[nH]c3c2)=N/C1=C\c1ccc2ncsc2c1 [Example 97, (Z)-2-((1H-benzo[d]imidazol-6-yl)amino)-5-(benzo[d]thiazol-6-ylmethylene)-3,5-dihydro-4H-imidazol-4-one] | * (<10% growth relative to blank myocyte growth without compound added.) | * (<10% growth relative to blank myocyte growth without compound added.) |  | 100 to 1000 nM | 
16 | Nc1ccc(NC2=N/C(=C\c3ccc4ncsc4c3)C(=O)N2)cc1 [Example 98, (Z)-2-((4-aminophenyl)amino)-5-(benzo[d]thiazol-6-ylmethylene)-3,5-dihydro-4H-imidazol-4-one] | ** (10%-50%) | ** (10%-50%) |  | 100 to 1000 nM | 
17 | O=C1NC(N(Cc2ccccc2)c2ccc3ncsc3c2)=N/C1=C\c1ccc2ncsc2c1 [Example 99, (Z)-2-(benzo[d]thiazol-6-yl(benzyl)amino)-5-(benzo[d]thiazol-6-ylmethylene)-3,5-dihydro-4H-imidazol-4-one] | ** (10%-50%) | * (<10% growth relative to blank myocyte growth without compound added.) |  | > 10000 nM | 
18 | CC(C)Nc1nc2ccc(NC3=N/C(=C\c4ccc5ncsc5c4)C(=O)N3)cc2s1 [Example 100, (Z)-5-(benzo[d]thiazol-6-ylmethylene)-2-((2-(isopropylamino)benzo[d]thiazol-6-yl)amino)-3,5-dihydro-4H-imidazol-4-one] | ** (10%-50%) | ** (10%-50%) |  | > 10000 nM | 
19 | O=C1NC(Nc2ccc3sccc3c2)=N/C1=C\c1ccc2ncsc2c1 [Example 101, (Z)-2-(benzo[b]thiophen-5-ylamino)-5-(benzo[d]thiazol-6-ylmethylene)-3,5-dihydro-4H-imidazol-4-one] | ** (10%-50%) | * (<10% growth relative to blank myocyte growth without compound added.) |  | > 10000 nM | 
